Consider three compounds from patent US10233209B2, “Inhibitors of the farnesoid x receptor and uses in medicine” (The United States of America, as represented by the …, priority 2013, dated 2019).

In data set [1] the target is T1, human FXR (Homo sapiens, UniProt Q96RI1).
T1 construct: expressed in transfected cells; host or cells: HEK293T
T1 sequence (Q96RI1 262-486 limits assumed): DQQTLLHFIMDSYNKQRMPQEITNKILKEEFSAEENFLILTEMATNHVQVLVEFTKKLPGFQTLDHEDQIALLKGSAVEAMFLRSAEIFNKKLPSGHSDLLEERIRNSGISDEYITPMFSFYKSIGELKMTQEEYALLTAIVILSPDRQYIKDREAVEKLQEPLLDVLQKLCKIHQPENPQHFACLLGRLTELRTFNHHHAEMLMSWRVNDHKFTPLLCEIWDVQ
Description: human FXR competition assay (GAL4-FXR chimeric receptor luciferase, HEK293T). The conditions noted are these: in the presence of GW4064. It is filed as cell-based. The protocol:
Luciferase detection was conducted using the Dual Luciferase Reporter Assay kit (Promega Corp., Madison, Wis.) and a Tecan GeniosPro luminescent plate reader (Research Triangle Park, N.C.).
Luciferase detection was conducted using the Dual Luciferase Reporter Assay kit (Promega; Madison, Wis.) and a Tecan GeniosPro™ luminescent plate reader (Research Triangle Park, N.C.).

Data set [2] relates to primary hepatocytes. Description: ceramide treatment of cultured primary hepatocytes. It is filed as cell-based, mouse. The procedure: Primary hepatocytes from 6-week-old C57BL/6N mice were obtained by collagenase 1 (Invitrogen, Carlsbad, Calif.) perfusion. The cells were purified by 45% Percoll (Sigma, St. Louis, Mo.) density centrifugation and cultured in DMEM (Invitrogen, Carlsbad, Calif.) with 10% fetal bovine serum and 1% Insulin-Transferrin-Selenium-Ethanolamine (ITS-X) (Invitrogen, Carlsbad, Calif.). The viability of hepatocytes was determined using trypan blue dye exclusion, and those with higher than 85% viability were used. The medium was changed to DMEM with 1% fetal bovine serum after culturing for 4 hours. After starvation for 4 hours, the cells were exposed to ceramide. At the prescribed time points, cells were harvested and subjected to qPCR analysis and TG content detection.
The mucosa of intestine was gently scraped and liver was taken and both were flash frozen in liquid nitrogen and stored at −80° C. until RNA was prepared. RNA was extracted from frozen intestine and liver using TRIzol reagent (Invitrogen, Carlsbad, Calif.). cDNA was synthesized from 1 μg total RNA using Superscript II reverse transcriptase (Invitrogen, Carlsbad, Calif.). qPCR primers were designed with qPrimerDepot. Measured mRNA levels were normalized to those of 18S ribosomal RNA and expressed as fold change relative to those of control group.
Liver whole-cell or nuclear extracts were prepared. Membranes were incubated with antibodies against FXR (Santa Cruz Biotechnology, Inc., Santa Cruz, Calif.), SREBP1 (BD Biosciences, San Jose, Calif.), and CIDEA (Abcam, Cambridge, Mass.). The signals obtained were normalized to β-ACTIN (Abcam) for whole cell extract and LAMIN A/C (Santa Cruz) for nuclear extracts.

Regarding `C[C@H](CCC(=O)NCCS(=O)(=O)O)[C@H]1CC[C@H]2[C@@H]3[C@@H](O)[C@H](O)[C@@H]4C[C@H](O)CC[C@]4(C)[C@H]3CC[C@]12C` [TWMCA], the “FXR activity induced by synthetic agonist GW4064 (luciferase, normalized to Renilla)” value in data set [1] is “inhibited FXR”.
Still for that read-out and setting: to `C[C@H](CCC(=O)NCCS(=O)(=O)O)[C@H]1CC[C@H]2[C@@H]3[C@H](O)[C@@H](O)[C@@H]4C[C@H](O)CC[C@]4(C)[C@H]3CC[C@]12C` [TαMCA] belongs “inhibited FXR”.
Consider ceramide, for which, in data set [2] (16 hours, 2, 5, 10 μM ceramide), the “mRNA of fatty acid synthesis and TG formation genes (Srebp1c, Cidea, Elovl6, Dgat2)” value is recorded as “significantly upregulated”; the “mRNA of fatty acid β-oxidation genes (Cpt1, Acox1, Ehhadh, Acaa1a)” value is “not affected”. In addition, the “triglyceride contents in primary hepatocytes” value in data set [2] (24 hours, 2, 5, 10 μM ceramide) is “significantly increased triglyceride contents”. In addition, in data set [2] (ceramide 2 μM and 10 μM, 24 hours), the “protein levels of nuclear SREBP1-N and CIDEA” value is listed as “significantly induced”.
